Assay results published in patent US10765631B2, “Liposomes for modulating Wiskott-Aldrich syndrome protein” (BAR-ILAN UNIVERSITY, priority 2013, dated 2020).
Each block holds one molecule with its values, some of them ahead of it.

Assays:
WASp [1] = target: T1, WASp (Homo sapiens, UniProt P42768); test: YFP-WASp expression in 293T cells treated with compounds, densitometric Western blot analysis; type: cell-based; settings: for effect on WASp expression in cells: 293T cells transfected with YFP-WASp; for Relative expression: YFP-WASp expression in transfected 293T cells relative to DMSO solvent control, compound 10-80 μM, overnight
T1 construct: expressed in transfected cells; host or cells: 293T cells, calcium-phosphate transfection
T1 sequence (P42768 1-502): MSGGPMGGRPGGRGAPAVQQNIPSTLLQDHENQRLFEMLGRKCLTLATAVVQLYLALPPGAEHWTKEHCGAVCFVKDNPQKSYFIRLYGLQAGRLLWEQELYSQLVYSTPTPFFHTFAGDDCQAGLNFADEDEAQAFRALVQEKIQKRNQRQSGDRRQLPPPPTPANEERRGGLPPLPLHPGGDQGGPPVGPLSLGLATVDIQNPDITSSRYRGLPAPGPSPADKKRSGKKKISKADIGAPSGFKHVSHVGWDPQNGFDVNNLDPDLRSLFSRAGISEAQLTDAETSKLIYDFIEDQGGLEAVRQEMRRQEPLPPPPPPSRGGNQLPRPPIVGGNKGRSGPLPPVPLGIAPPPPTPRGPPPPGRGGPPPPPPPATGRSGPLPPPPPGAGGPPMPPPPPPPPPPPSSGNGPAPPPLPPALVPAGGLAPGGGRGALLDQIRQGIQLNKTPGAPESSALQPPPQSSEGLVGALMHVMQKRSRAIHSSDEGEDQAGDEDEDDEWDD
Procedure: Compounds were obtained and from ChemBridge Corporation. San Diego, Calif., USA. Of the compounds obtained, 14 were considered potential agents for modulating WASp expression, by their potential to bind to WASp. The 14 compounds were tested in 293T cells using the following procedure.
The compounds were individually dissolved in DMSO to make a stock solution of 20 millimolar (mM) and kept stored at −20° C. 293T cells were prepared to mid log phase, ˜60-80% confluence, and were transfected with 15 μg of yellow-fluorescent protein, YFP-WASp plasmid (6023), using a Calcium-phosphate transfection protocol. Cells were collected and counted. 1-2×10^6 cells per sample in 6-well supplemented with 2-4 ml complete (10% FCS) DMEM medium (0.5×10^6 cells/ml). Cells were plated in 6 wells (0.5×10^6 cells/ml×Number of samples) and pre-incubate at 37°, 5% CO2 for at least 4 h (for the cells to adhere. 1 ml of the medium in which the cells were grown is taken, and added to the compound (10-80 μM). The medium, with the compound, was added back to the cells in the plate, drop-wise. Cells were incubated overnight at 37° C., 5% CO2. Densitometric analysis of YFP-WASp expression in the cells treated with the compounds, using Western blot analysis. The compounds with a relative 1.5-fold change (either increase or decrease) of expression relative cells which were exposed to DMSO solvent control, are listed in table 2 below. Table 2 lists the compounds' modulation of WASp expression levels as a function of relative expression of WASp in relation to control.

WASp [2] = test: WASp gene silencing by siRNA in T cell leukemic cells, Western blot; type: cell-based
Procedure: As shown in the previous examples, WASp is overexpressed in malignant cells. Gene silencing of WASp expression using siRNA was tested. WASp was silenced using commercially available siRNA oligonucleotides. A mixture of the following oligonucleotides, each in the form of double-stranted siRNA duplex with its corresponding sequence at an amount of 500 pico-mole was introduced to 1×10^7 cells:
These experiments were performed in T cell leukemic cells. Silencing efficiency of about 90% was achieved 48 hours after transfection, when compared to non-specific (N.S) siRNA-treated cells.
A number of siRNA duplexes were tested in cells as in example 1E. The following double-stranded siRNA sequences were used: SEQ ID NO. 1 and its complementary sequence; SEQ ID NO. 2 and its complementary sequence; SEQ ID NO. 3 and its complementary sequence; SEQ ID NO. […] and its complementary sequence (designated as 1-4). 500 picomole of each double-stranded siRNA was used. In addition, a nonsense siRNA sequence (designated as “N.S. siRNA”) was used as a control. Control N.S. siRNA was made from 125 duplexes of each of the siRNA molecules in Table 5:
In addition, a mixture of the siRNAs comprising SEQ ID NOS. 1-4 (designated as “Mix”) was also used, comprising 125 picomole of each. Upon analysis with Western blot, it was shown that all siRNA duplexes were effective in downregulating WASp, with the siRNA of SEQ. ID NO.

Molecule: COCC1CCN(c2ccc(C(=O)N3CCC(N4CCOCC4)CC3)cn2)C1 (centres unmarked) [Compound 4, 4-[1-({6-[3-(methoxymethyl)pyrrolidin-1-yl]pyridin-3-yl}carbonyl)piperi-din-4-yl]morpholine]
effect on WASp expression in cells (WASp [1]): increase WASp expression | Relative expression (WASp [1]): 1.5

B1: Mix: mixture of the double-stranded siRNA duplexes of SEQ ID NOS. 1-4 (nucleic acid)
chain 1: UGACUGAGUGGCUGAGUUA
chain 2: GACCUAGCCCAGCUGAUAA
chain 3: GAAUGGAUUUGACGUGAAC
chain 4: GCCGAGACCUCUAAACUUA
modifications: listed as RNA, chemistry not given here
Silencing efficiency (WASp [2]; 48 hours after transfection, T cell leukemic cells, 500 pico-mole to 1×10^7 cells, compared to non-specific (N.S) siRNA-treated cells): about 90%

B2: N.S. siRNA: nonsense siRNA control made from duplexes of SEQ ID NO. 9-12 (Table 5) (nucleic acid)
chain 1: UAGCGACUAAACACAUCAAUAGGCUAUGAAGAGAUAC
chain 2: AUGUAUUGGCCUGUAUUAG
chain 3: AUGAACGUGAAUUGCUCAA
chain 4: UGGUUUACAUGUCGACUAA
modifications: listed as RNA, chemistry not given here
downregulating WASp (WASp [2]; Western blot, 500 picomole double-stranded siRNA, cells as in example 1E, FIG. 2): ineffective in downregulating WASp

Further lines, results first:

effect on WASp expression in cells (WASp [1]): effective in decreasing WASp expression | Relative expression (WASp [1]): 0.5
Molecule: COc1ccccc1-c1cccc(C(=O)NC(C)Cc2ccccn2)c1 (centres unmarked) [Compound 14, 2′-methoxy-N-(1-methyl-2-pyridin-2-ylethyl)biphenyl-3-carboxamide]

effect on WASp expression in cells (WASp [1]): effective in decreasing WASp expression | Relative expression (WASp [1]): 0.6
Molecule: CC(C)c1n[nH]c2c1CN(C(=O)c1cccc(C#CC(C)(C)O)c1)CC2 [Compound 10, 4-{3-[(3-isopropyl-1,4,6,7-tetrahydro-5H-pyrazolo[4,3-c]pyridin-5-yl)carbonyl]phenyl}-2-methylbut-3-yn-2-ol]

effect on WASp expression in cells (WASp [1]): effective in decreasing WASp expression | Relative expression (WASp [1]): 0.3
Molecule: COc1ccc(CN2C(=O)N(CC(C)C)C3(CCN(C4Cc5ccccc5C4)CC3)C2=O)cc1 [Compound 13, 8-(2,3-dihydro-1H-inden-2-yl)-1-isobutyl-3-(4-methoxy-benzyl)-1,3,8-triazaspiro[4.5] decane-2,4-dione]

effect on WASp expression in cells (WASp [1]): increase WASp expression | Relative expression (WASp [1]): 2.1
Molecule: Cc1cc(C)n(C2CCN(C(=O)c3cc(COc4ccccc4)[nH]n3)C2)n1 (centres unmarked) [Compound 7, 3,5-dimethyl-1-(1-{[5-(phenoxy-methyl)-1H-pyrazol-3-yl]carbonyl}pyrrolidin-3-yl)-1H-pyrazole]

effect on WASp expression in cells (WASp [1]): increase WASp expression | Relative expression (WASp [1]): 6.7
Molecule: CC(=O)N[C@H]1C[C@@H](c2ccc3c(c2)nnn3C)O[C@@H](c2ccc(Cl)cc2)C1 [Compound 6, N-[(2R,4R,6S)-2-(4-chloro-phenyl)-6-(1-methyl-1H-1,2,3-benzotriazol-5-yl)tetrahydro-2H-pyran-4-yl]acetamide]
